From patent US20240319209A1, “METHOD FOR QUANTIFYING AHSP PROTEIN AND ITS USE FOR PROGNOSING A HAEMOGLOBIN-RELATED DISORDER” (INSTITUT NATIONAL DE LA SANTÉ ET DE LA RECHERCHE MÉDICALE, priority 2021, published 2024)
Values joined by “and” are separate entries in the source; they are usually repeats but may differ in a detail not shown here. Identical values can stand only once. “Also recorded” adds a separate entry of the source.

Columns and labels:
α-Hb = assay: In vitro α-Hb pool measurement in haemolysate (capture on GST-AHSP affinity support); format: in vivo, human; conditions: Treated SS patients (HC), n=10, mean ± SD; ng free α-Hb per mg total subunits per mL of lysed RBCs
Protocol: (§1) We centrifuged 4 mL of whole blood from each subject for 5 min at 4° C., with blood samples processed within 2 h of collection. The plasma was gently removed, leaving 3 mm above the RBCs to retain the reticulocytes; the RBCs were washed with 0.15 M NaCl and then frozen at −80° C. They were thawed on ice and lysed with four volumes of cold distilled water, and incubated for 30 min at +4° C., before centrifugation at 16,000×g for 30 min at +4° C. The RBC lysate (haemolysate) was recovered as the supernatant and stored at −80° C.
The α-Hb pool was assessed for the RBC lysates of all subjects (SS patients and controls), by capturing α-Hb subunits on GST-AHSP bound to an affinity chromatography support, as previously described.^15

AHSP = assay: Determination of AHSP concentration in haemolysates by sandwich ELISA; format: in vivo, human
Protocol: as §1
We used high-binding 96-well ELISA plates (COSTAR High Binding ELISA Plates, Corning Incorporated, Corning, NY, USA). Following each step, up to 3,3′,5,5′-tetramethylbenzidine (TMB) addition, the wells were washed three times with 300 μL DPBS-0.05% Tween-20 (DPBS-TWEEN® Tablets, Calbiochem, Millipore Corporation, Burlington, MA, USA). The wells were coated with 100 μL/well anti-Ahsp antibody (EPR12319, diluted 1:1000 in DPBS) as the capture antibody. After 2 h at 37° C., the wells were washed and blocked by incubation for 2 h at 37° C. with 300 μL blocking buffer (0.15% BSA in DPBS). The wells were washed and left to dry in air, covered with SealPlate and stored at 4° C.
Serial dilutions of recombinant AHSP stored in −80° C. were prepared (0.395 to 3 ng/mL) in blocking buffer and added to the plate in duplicate in each assay, for construction of the calibration curve. Diluted recombinant AHSP were added to the coated wells (100 μL/well) and the plates were incubated for 2 h at 37° C. The plates were washed and 100 μL of biotin-conjugated rabbit polyclonal anti-human recombinant Ahsp antibody (Met1-Ser102) (ABIN2615200, Antibodies-online Gmb, Aachen, Germany, diluted 1:255 in blocking buffer), used as the detecting antibody, were added to each well, and the plates were incubated for 1 h at 37° C. The plates were washed five times and the samples were then incubated with 100 μL/well streptavidin-HRP (DY998, R&D Systems, Minneapolis, MN, USA, diluted 1:100 in blocking buffer) for 20 min at 37° C. in the dark. Next steps, washes and incubations, were performed in the dark. The reaction was developed by adding 50 μL/well TMB as a substrate (1-Step™ Ultra TMB-ELISA, Thermo Fisher Scientific). The plates were incubated for 5-10 min, and the reaction was then stopped by adding 50 μL/well 1 N sulfuric acid. Absorbance was measured immediately, at 450 nm (A450), with a microplate reader (Eon™, BioTek Instruments Inc, Winooski, Vermont, USA).
A standard curve was generated with known concentrations and absorbances of the recombinant human AHSP, with the EON microplate reader and Gen5 software.
The haemolysates were diluted 1:1000 in blocking buffer and added (100 μL/well) to the plate coated with the capture antibody. The plates were incubated for 2 h at 37° C., washed and 100 μL of the detecting antibody were added to each well, and then the plates were incubated for 1 h at 37° C. The further procedure is the same as for the AHSP range described above. The AHSP concentrations of the diluted haemolysates were determined by comparison to the standard curve expressed as ng per mL by the microplate reader. All the concentrations of AHSP obtained are the means of four ELISAs. Finally, taking into account the 1000-fold dilution of haemolysates, the final concentrations are reported in μg AHSP per mL of haemolysate.
The inter-subject variabilities were determined by calculating the CVs for four independent measurements of biological AHSP in each haemolysate.

SS patients = assay: Routine clinical and laboratory (haematological and biological) data in SS patients with HC treatment
[1] = HC-treated SS patients, n=10, FIG. 1
[2] = Treated SS patients (HC), n=10, mean ± SD

With `NC(=O)NO` [HC, hydroxycarbamide] the α-Hb pool (α-Hb) was 162 ± 31 ppm, the “AHSP concentration, interquartile range (IQR)” value (AHSP; HC-treated SS patients, n=10) was 1.26 to 1.76 µg/mL and the “AHSP concentration, maximum value” (AHSP; [1]) was 2.16 μg AHSP per mL of haemolysate. For the same molecule, the “AHSP concentration, minimum value” (AHSP; [1]) was 1.18 μg AHSP per mL of haemolysate, the “Effect of HC treatment on AHSP concentration in RBCs (in words)” value (AHSP; HC-treated vs untreated SS patients, remained higher than in controls) was “significantly lower; also recorded: significantly decreased” and the “Measured [AHSP], individual treated patients” value (AHSP; Individual HC-treated SS patients P13-P22, average of 3 or 4 independent measurements ± SD, haemolysate) was 1.37 ± 0.17 µg/mL and 2.16 ± 0.29 µg/mL and 1.99 ± 0.26 µg/mL and 1.32 ± 0.13 µg/mL and 1.18 ± 0.21 µg/mL and 1.29 ± 0.23 µg/mL and 1.19 ± 0.28 µg/mL and 1.34 ± 0.15 µg/mL and 1.44 ± 0.17 µg/mL and 1.69 ± 0.15 µg/mL. For the same molecule, the “Measured [AHSP], group mean” value (AHSP; Treated SS patients (HC), n=10, mean ± SD, RBC haemolysate) was 1.50 ± 0.34 µg/mL, the LDH (SS patients; Treated SS patients (HC), n = 9, mean ± SD) was 403.2 ± 68.09 U/L and the “DRBCs (dense dehydrated RBCs, density > 1.110 g/mL)” value (SS patients; [2]) was 4.3% and 4.3 ± 2.54%. The Ferritin (SS patients; [2]) was 333.2 ± 206.8 µg/L, the Haematocrit (SS patients; [2]) was 28.4 ± 4.74% and the Hb (SS patients; [2]) was 9.9 ± 1.58 g/dL. For the same molecule, the HbA2 (SS patients; [2]) was 2.04 ± 0.53%, the HbF (SS patients; [2]) was 21.51% and 21.51 ± 5.36% and the HbS (SS patients; [2]) was 76.45 ± 4.9%. The MCH (SS patients; [2]) was 39.7 ± 4.76 pg, the MCHC (SS patients; [2]) was 34.8 ± 0.79 g/dL and the “MCHbF (% HbF × MCH)” value (SS patients; [2]) was 8.69 ± 2.81 pg. The “MCHbS (% HbS × MCH)” value (SS patients; [2]) was 30.22 ± 2.89 pg, the MCV (SS patients; [2]) was 114.3 ± 13.43 fL and the Platelets (SS patients; [2]) was 355.8 ± 125.5 ×10^9/L. For the same molecule, the RBC (SS patients; [2]) was 2.42 ± 0.45 ×10^12/L, the RDW (SS patients; [2]) was 17 ± 2.26% and the Reticulocytes (SS patients; [2]) was 114.7 ± 45.87 ×10^9/L. The “Reticulocytes (%)” value (SS patients; [2]) was 4.57 ± 1.79%, the Total bilirubin (SS patients; [2]) was 28.5 ± 14.18 µmol/L and the WBC (SS patients; Treated SS patients (stable HC treatment for at least one year), n=10, mean ± SD) was 6.88 ± 1.46 ×10^9/L.
